# Test results: US8889671B2, “Compounds and methods for treating bacterial infections” (AstraZeneca AB, priority 2013, dated 2014)
# Read-outs that look alike come from different tables or passages of the source.
# Legend:
# Staphylococcus aureus = assay: Susceptibility testing (MIC) Assay 1, broth microdilution; type: cell-based
# Experimental: (§1) Minimum Inhibitory Concentrations (MICs) were determined by the broth microdilution method in accordance with the Clinical and Laboratory Standards Institute (CLSI) guidelines. In brief, organism suspensions were adjusted to a 0.5 McFarland standard to yield a final inoculum between 3×10^5 and 7×10^5 colony-forming units (CFU)/mL. Bacterial inocula were prepared for most organisms in sterile, cation adjusted Mueller-Hinton Broth (Beckton Dickinson). The streptococci were prepared as above in cation adjusted Mueller-Hinton Broth to which 2.5% lysed horse blood (Hema Resource & Supply Inc.) was added. An inoculum volume of 100 μL was added to wells (using a Tecan EVO robot) containing 2 μL of DMSO containing 2-fold serial dilutions of drug. All inoculated microdilution trays were incubated in ambient air at 35° C. for 18-24 hours. Following incubation, the lowest concentration of the drug that prevented visible growth as read at OD600 nm and confirmed by a visual read using a test reading mirror was recorded as the MIC. Performance of the assay was monitored by the use of laboratory quality-control strains and commercially available control compounds with defined MIC spectrums, in accordance with CLSI guidelines. Table 1 provides the MIC results (μM) of Examples 1-77 tested in Assay 1. Table 2 provides the MIC (μg/mL) results of Examples 78-80 tested in Assay 1.
# Streptococcus pneumoniae = assay: as above; type: cell-based
# Experimental: as §1
# Streptococcus pyogenes = assay: as above; type: cell-based; settings: Streptococcus pyrgenes, in vivo strain, read-out: Spy MIC
# Experimental: as §1
# Escherichia coli = assay: Susceptibility testing (MIC) Assay 2, broth microdilution; type: cell-based; settings: K12, read-out: Eco MIC
# Experimental: (§2) Minimum Inhibitory Concentrations (MICs) were determined by the broth microdilution method in accordance with the Clinical and Laboratory Standards Institute (CLSI) guidelines. In brief, organism suspensions were adjusted to a 0.5 McFarland standard to yield a final inoculum between 3×10^5 and 7×10^5 colony-forming units (CFU)/mL. Bacterial inocula were generally prepared in sterile, cation adjusted Mueller-Hinton Broth (Becton Dickinson) which included Escherichia coli, Klebsiella pneumoniae, and Pseudomonas aeruginosa. Haemophilus influenzae bacterial inocula were prepared in sterile, cation adjusted Mueller-Hinton Broth (Becton Dickinson) containing 0.5% yeast extract (Becton Dickinson) plus 30 mL of 15 μg/mL Bovine Hematin stock (Sigma), and 3 mL of 15 μg/mL β-nicotinamide adenine dinucleotide (Sigma). Strains of Neisseria were tested for MICs using agar dilution methodology in accordance with CLSI guidelines. For broth microdilution testing, an inoculum volume of 100 μL was added to wells (using a Tecan EVO robot) containing 2 μL of DMSO containing 2-fold serial dilutions of drug. All inoculated microdilution panels were incubated in ambient air at 35° C. for 18-24 hours. Following incubation, the lowest concentration of the drug that prevented visible growth as read at OD600 nm and confirmed by a visual read using a test reading mirror was recorded as the MIC. Performance of the assay was monitored by the use of laboratory quality-control strains and commercially available control compounds with defined MIC spectrums, in accordance with CLSI guidelines. Table 3 provides the MIC results (μM) of Examples 1-77 tested in Assay 2. Table 4 provides the MIC (μg/mL) results of Examples 78-80 tested in Assay 2.
# Haemophilus influenzae = assay: as above; type: cell-based; settings: ATCC 51907, in vivo strain, read-out: Hin MIC
# Experimental: as §2
# Klebsiella pneumoniae = assay: as above; type: cell-based; settings: clinical isolate, mucoid, read-out: Kpn MIC
# Experimental: as §2
# Pseudomonas aeruginosa = assay: as above; type: cell-based; settings: for MIC: PAO1, read-out: Pae MIC
# Experimental: as §2
# [1] = target: Escherichia coli DNA gyrase A/B tetramer (Escherichia coli (strain K12), UniProt P0AES4+P0AES6); assay: DNA gyrase supercoiling activity fluorescence polarisation assay; type: biochemical; settings: Eco Gyr FP Mean IC50, E. coli DNA gyrase supercoiling, 0.3 mM ATP
# Experimental: In a black, 384-well polystyrene assay plate, 30 microliters/well of 5 nM Escherichia coli DNA gyrase A/B tetramer and 130 micrograms/mL of topologically relaxed plasmid containing the triplex-forming sequence
# in an assay buffer consisting of 35 mM Tris-HCl (pH 7.5), 24 mM KCl, 4 mM MgCl2, 2 mM dithiothreitol, 1.8 mM spermidine, 5% (v/v) glycerol, 200 nM bovine serum albumin, 0.8% dimethylsulfoxide, and 0.3 mM ATP were incubated at ambient temperature for (typically 30 minutes) in the absence or presence of 5-10 different concentrations of test compound. The supercoiling reactions were quenched by the addition of 10 microliters/well of 40 nM oligodeoxynucleotide probe in 3× triplex-forming buffer consisting of 150 mM NaCl, and 150 mM sodium acetate at pH 3.5. The oligodeoxynucleotide probe was 5′-BODIPY-FL-labeled
# After 60 minutes, the fluorescence anisotropy of the BODIPY-FL was measured in a Tecan Ultra plate reader, using 485 nm excitation and 535 nm emission filters equipped with polarizers. The IC50 was determined by nonlinear regression using two control reactions.
# [2] = Staphylococcus aureus, Staphylococcus aureus in vivo strain, MSQS, read-out: Sau(d) MIC
# [3] = Staphylococcus aureus, in vivo strain, MRQR, read-out: Sau(e) MIC
# [4] = Staphylococcus aureus, serum, read-out: Sau(f) MIC
# [5] = in vivo strain (footnote b), read-out: Spn(b) MIC
# [6] = in vivo strain (footnote c), read-out: Spn(c) MIC
# [7] = ATCC51907, Haemophilus influenzae
Structure (SMILES),MIC (Staphylococcus aureus; [2]) [µM],MIC (Staphylococcus aureus; [3]) [µM],MIC (Staphylococcus aureus; [4]) [µM],MIC (Streptococcus pneumoniae; [5]) [µM],MIC (Streptococcus pneumoniae; [6]) [µM],MIC (Streptococcus pyogenes; Streptococcus pyogenes) [µM],MIC (Escherichia coli) [µM],MIC (Haemophilus influenzae; [7]) [µM],MIC (Klebsiella pneumoniae) [µM],MIC (Pseudomonas aeruginosa) [µM],IC50 [1] [nM],"MIC (Staphylococcus aureus; Staphylococcus aureus in vivo strain, MSQS, read-out: Sau(d) MIC) [µM]",MIC (Streptococcus pyogenes) [µM],MIC (Haemophilus influenzae) [µM],Pae MIC (Pseudomonas aeruginosa; PAO1) [µM]
"C[C@@H]1CN2c3c(cc4c(N5CC(C)(C)OC5=O)noc4c3F)CC3(C(=O)NC(=O)NC3=O)[C@H]2[C@H](C)O1 (racemic) [Example 12, (2R,4S,4aS)-8-(5,5-Dimethyl-2-oxo-1,3-oxazolidin-3-yl)-11-fluoro-2,4-dimethyl-1,2,4,4a-tetrahydro-2′H,6H-spiro[1,4-oxazino[4,3-a][1,2]oxazolo[4,5-g]quinoline-5,5′-pyrimidine]-2′,4′,6′(1′H,3′H)-trione]",1.6,3.1,25,6.2,6.2,3.1,100,3.1,> 200,> 200,3200,–,–,–,–
"COC[C@H]1COC(=O)N1c1noc2c(F)c3c(cc12)CC1(C(=O)NC(=O)NC1=O)[C@H]1[C@H](C)O[C@H](C)CN31 (single isomer, unassigned) [Example 17]",0.28,0.78,0.39,0.55,0.55,0.55,50,0.39,> 200,> 200,140,–,–,–,–
"COC[C@H]1COC(=O)N1c1noc2c(F)c3c(cc12)CC1(C(=O)NC(=O)NC1=O)[C@H]1[C@H](C)O[C@H](C)CN31 (single isomer, unassigned) [Example 67]",–,0.55,0.55,0.4,0.55,–,25,–,>200,–,330,0.28,0.28,0.55,>200
"C[C@@H]1CN2c3c(cc4c(N5CCOC5=O)noc4c3F)CC3(C(=O)NC(=O)NC3=O)[C@H]2[C@H](C)O1 [Example 1, (2R,4S,4aS)-11-Fluoro-2,4-dimethyl-8-(2-oxo-1,3-oxazolidin-3-yl)-1,2,4,4a-tetrahydro-2′H,6H-spiro[1,4-oxazino[4,3-a][1,2]oxazolo[4,5-g]quinoline-5,5′-pyrimidine]-2′,4′,6′(1′H,3′H)-trione]",0.39,3.1,0.78,0.78,0.78,0.39,50,0.78,> 200,> 200,1300,–,–,–,–
"C[C@@H]1CN2c3c(cc4c(N5C(=O)OC[C@H]5C)noc4c3F)CC3(C(=O)NC(=O)NC3=O)[C@H]2[C@H](C)O1 [Example 2, (2R,4S,4aS)-11-Fluoro-2,4-dimethyl-8-[(4R)-4-methyl-2-oxo-1,3-oxazolidin-3-yl]-1,2,4,4a-tetrahydro-2′H,6H-spiro[1,4-oxazino[4,3-a][1,2]oxazolo[4,5-g]quinoline-5,5′-pyrimidine]-2′,4′,6′(1′H,3′H)-trione]",3.1,12,6.2,12,3.1,3.1,100,1.6,> 200,> 200,2700,–,–,–,–
"C[C@@H]1CN2c3c(cc4c(N5C[C@H](C)OC5=O)noc4c3F)CC3(C(=O)NC(=O)NC3=O)[C@H]2[C@H](C)O1 [Example 3, (2R,4S,4aS)-11-Fluoro-2,4-dimethyl-8-[(5S)-5-methyl-2-oxo-1,3-oxazolidin-3-yl]-1,2,4,4a-tetrahydro-2′H,6H-spiro[1,4-oxazino[4,3-a][1,2]oxazolo[4,5-g]quinoline-5,5′-pyrimidine]-2′,4′,6′(1′H,3′H)-trione]",0.39,1.6,1.6,1.6,1.6,0.78,50,1.6,> 200,> 200,1440,–,–,–,–
"C[C@@H]1CN(c2noc3c(F)c4c(cc23)CC2(C(=O)NC(=O)NC2=O)[C@H]2[C@H](C)O[C@H](C)CN42)C(=O)O1 [Example 4, (2R,4S,4aS)-11-Fluoro-2,4-dimethyl-8-[(5R)-5-methyl-2-oxo-1,3-oxazolidin-3-yl]-1,2,4,4a-tetrahydro-2′H,6H-spiro[1,4-oxazino[4,3-a][1,2]oxazolo[4,5-g]quinoline-5,5′-pyrimidine]-2′,4′,6′(1′H,3′H)-trione]",0.25,0.67,0.47,0.42,0.46,0.36,9.9,0.47,200,> 200,390,–,–,–,–
"CC[C@H]1COC(=O)N1c1noc2c(F)c3c(cc12)CC1(C(=O)NC(=O)NC1=O)[C@H]1[C@H](C)O[C@H](C)CN31 [Example 6, (2R,4S,4aS)-8-[(4S)-4-Ethyl-2-oxo-1,3-oxazolidin-3-yl]-11-fluoro-2,4-dimethyl-1,2,4,4a-tetrahydro-2′H,6H-spiro[1,4-oxazino[4,3-a][1,2]oxazolo[4,5-g]quinoline-5,5′-pyrimidine]-2′,4′,6′(1′H,3′H)-trione]",1.6,6.2,12,6.2,3.1,3.1,100,3.1,121,> 200,3300,–,–,–,–
